Results on 35 compounds are retold here after patent US7871805B2, “Glucose dehydrogenase” (Toyo Boseki Kabushiki Kaisha, priority 2006, dated 2011).

Where two headings read alike, the source gives them in different places.

Assay [1] has as its system GDH derived from NBRC32032. The experiment in a line: Substrate specificity of purified GDH (DCPIP activity assay). The conditions noted are these: for Relative activity: substrate final concentration 4 mM, activity using glucose as substrate made 100%; for action of enzyme upon substrate (in words): substrate 4 mM. The format is biochemical, Penicillium italicum. The protocol: (§1) The present invention is also characterized by high substrate specificity, the action upon maltose is less than 1% of the action upon glucose, and the action upon galactose is less than 2% of the action upon glucose. The action referred to herein indicates the GDH activity at a substrate concentration of 4 mM, it is measured according to Test Example described later, and in a reaction solution composition used, for the substrate concentration, the final concentration is adjusted to 4 mM.
(§2) A reaction reagent is made by mixing 15.8 mL of the PIPES buffer, 0.2 mL of the DCPIP solution and 4 mL of the D-glucose solution.
(§3) The reaction reagent (2.9 mL) is preliminarily heated at 37° C. for 5 minutes. The GDH solution (0.1 mL) is added and gently mixed, subsequently the change of absorbance at 600 nm is recorded for 5 minutes using a spectrophotometer controlled to 37° C. using water as a control, and the change of absorbance per one minute (ΔODTEST) is calculated from a linear portion of the record. The solvent in which GDH will be dissolved in place of the blinded GDH solution is added to the reagent mixture, and the change of absorbance (ΔODBLANK) per one minute is measured. The GDH activity is calculated from these values according to the following formula. One unit (U) in the GDH activity is defined as the amount of the enzyme which reduces 1 μmol DCPIP for one minute in the presence of 200 mM D-glucose. Activity (U/mL)=[—(ΔODTEST−ΔODBLANK)×3.0×dilution scale]/(16.3×0.1×1.0)
(§4) In order to know the substrate specificity of the purified GDH solutions derived from NBRC6231 and NBRC32032 obtained in Example 1, the activity was measured using the reaction reagent in which the substance shown in Table had been dissolved at a final concentration of 4 mM.

Assay [2] relates to GDH derived from NBRC6231. Described as above. It counts as biochemical, Penicillium lilacinoechinulatum. The conditions noted are these: for Relative activity: substrate final concentration 4 mM, activity using glucose as substrate made 100%; for action of enzyme upon substrate (in words): substrate 4 mM. The protocol:
as §1, §2, §3, §4

Assay [3] deals with GDH derived from NBRC6231. The experiment in a line: Effects of chemicals on GDH activity. It counts as biochemical, Penicillium lilacinoechinulatum.
Assay [4] has as its system GDH derived from NBRC32032. The experiment in a line: Effects of chemicals on GDH activity. The format is biochemical, Penicillium italicum.
The mark [5] stands for this setting: 2 mM, inhibited = 10% or more activity lowering, strong = 50% or more, GDH from NBRC6231.
Where [6] appears, read: additive final concentration 2 mM, activity with no chemical made 100, GDH from NBRC6231.
Setting [7] is: 2 mM, inhibited = 10% or more activity lowering, strong = 50% or more, GDH from NBRC32032.
[8] abbreviates: additive final concentration 2 mM, activity with no chemical made 100, GDH from NBRC32032.

Regarding `O=C[C@@H](O)[C@H](O)[C@H](O)CO` [Arabinose], the Relative activity in assay [1] and in assay [2] was 0.2% throughout.

Regarding `O=C[C@H](O)[C@@H](O)[C@H](O)CO` [Xylose], the “action of enzyme upon substrate (in words)” value (shortened to “action”) in assay [1] and in assay [2] was “acted upon” each time. Moreover, the Relative activity in assay [1] was 10.4%; in assay [2], 10.1%.

As to `CCN1C(=O)C=CC1=O` [N-ethylmaleimide], the “inhibitory effect (in words)” value in assay [3] (setting [5]) and in assay [4] (setting [7]) was “inhibitory effect” each time. For the same compound, the Relative activity turned out to be 86.8 in assay [3] (setting [6]) and 87.8 in assay [4] (setting [8]).

`O=C[C@H](O)[C@@H](O)[C@@H](O)[C@H](O)CO` [Galactose]: the values for the Relative activity in assay [1] and in assay [2] were 0.6% and 1.0%, respectively.

Consider `[Cl-].[Cl-].[Co+2]` [CoCl2], for which the Relative activity stood at 94.1 in assay [3] and 102 in assay [4].

Turning to `[Cl-].[Cl-].[Mg+2]` [MgCl2], the results for the Relative activity in assay [3] (setting [6]) and in assay [4] were 99.7 and 102, respectively.

For the compound Maltotriose, the Relative activity in assay [1] is given as 1.0%; in assay [2], 0.2%.

Regarding `NC(=O)CI` [Iodoacetamide], the Relative activity in assay [3] was 111; in assay [4] it was 101.

Take `OC[C@H]1O[C@H](O[C@H]2[C@H](O)[C@@H](O)C(O)O[C@@H]2CO)[C@H](O)[C@@H](O)[C@@H]1O` (mixture of isomers) [Maltose]: the results for the Relative activity in assay [1] and in assay [2] were 0.2% and 0.5%, respectively.

In the case of `O=CC[C@@H](O)[C@H](O)[C@H](O)CO` [2-deoxy-D-glucose], in assay [1], the “action” value is given as “acted upon” and the Relative activity worked out at 17.2%. In assay [2], the “action” value is reported as “acted upon” and the Relative activity was found to be 14.3%.

On to `O=[N+]([O-])[O-].[Ag+]` [AgNO3, silver nitrate], for which the “inhibitory effect (in words)” value in assay [3] (setting [5]) and in assay [4] was “strong inhibitory effect” throughout. Further, the Relative activity was 20.9 in assay [3] (setting [6]) and 15.0 in assay [4].

As for `CC(=O)[O-].CC(=O)[O-].[Ba+2]` [Ba(OAc)2], the Relative activity in assay [3] (setting [6]) and in assay [4] was 106 in each case.

For `CC(=O)[O-].CC(=O)[O-].[Cd+2]` [Cd(OAc)2, cadmium acetate], the “inhibitory effect (in words)” value in assay [3] (setting [5]) and in assay [4] was “strong inhibitory effect” throughout. Also, the Relative activity was 41.0 in assay [3] (setting [6]) and 41.4 in assay [4].

`[F-].[Na+]` [NaF]: the Relative activity in assay [3] (setting [6]) was 111; in assay [4] it was 102.

Turning to `O=C(CO)[C@H](O)[C@@H](O)[C@H](O)CO` [Sorbose], the Relative activity in assay [1] is 0.5%; in assay [2] it was 0.1> %.

With `OC[C@H]1O[C@H](O[C@H]2O[C@H](CO)[C@@H](O)[C@H](O)[C@H]2O)[C@H](O)[C@@H](O)[C@@H]1O` [Trehalose], the figures for the Relative activity in assay [1] and in assay [2] were 0.1> % and 0.3%, respectively.

For `OC[C@H]1O[C@@](CO)(O[C@H]2O[C@H](CO)[C@@H](O)[C@H](O)[C@H]2O)[C@@H](O)[C@@H]1O` [Sucrose], the Relative activity in assay [1] is listed as 1.1%; in assay [2], 0.6%.

Consider `O=C(O)CN(CCN(CC(=O)O)CC(=O)O)CC(=O)O` [EDTA], for which the figures for the Relative activity in assay [3] and in assay [4] were 113 and 104, respectively.

On to `O=C[C@H](O)[C@H](O)[C@H](O)CO` [Ribose], for which the figures for the Relative activity in assay [1] and in assay [2] were 0.2% and 0.1> %, respectively.

Turning to `[Cl][Ni][Cl]` [NiCl2], the figures for the Relative activity in assay [3] (setting [6]) and in assay [4] were 96.6 and 101, respectively.

For `[Ca+2].[Cl-].[Cl-]` [CaCl2], the Relative activity in assay [3] (setting [6]) and in assay [4] was 103 in each case.

Turning to `[Cl][Fe]([Cl])[Cl]` [FeCl3, iron chloride (III)], the Relative activity in assay [3] is on record as 106; in assay [4] it was 77.5. For the same compound, the “inhibitory effect (in words)” value in assay [4] (2 mM) is reported as “inhibited”.

As to `OB(O)O` [Borate], the Relative activity was 111 in assay [3] (setting [6]) and 102 in assay [4].

As to `O=C(CO)[C@@H](O)[C@H](O)[C@H](O)CO` [Fructose], the Relative activity in assay [1] was 0.3%; in assay [2], 0.2%.

As to `c1cnc2c(c1)ccc1cccnc12` [o-phenanthroline], the Relative activity in assay [3] is listed as 106; in assay [4], 103.

Consider `OC[C@H]1O[C@H](O[C@H]2[C@H](O)[C@@H](O)[C@@H](O[C@H]3[C@H](O)[C@@H](O)[C@@H](O[C@H]4[C@H](O)[C@@H](O)C(O)O[C@@H]4CO)O[C@@H]3CO)O[C@@H]2CO)[C@H](O)[C@@H](O)[C@@H]1O` (stereo partly shown) [Maltotetraose], for which the Relative activity in assay [1] is 1.6%; in assay [2] it was 0.1> %.

`c1ccc(-c2ccccn2)nc1` [α,α′-dipyridyl]: the Relative activity in assay [3] stood at 109; in assay [4], 102.

As to `O=S(=O)([O-])[O-].[Cu+2]` [CuSO4, copper sulfate], the “inhibitory effect (in words)” value in assay [3] (setting [5]) and in assay [4] was “strong inhibitory effect” each time. The figures for the Relative activity in assay [3] (setting [6]) and in assay [4] were 2.2 and 4.5, respectively.

Take `[Cl-].[Cl-].[Zn+2]` [ZnCl2]: the Relative activity turned out to be 76.2 in assay [3] (setting [6]) and 75.1 in assay [4].

For the compound `NO` [Hydroxylamine], the “inhibitory effect (in words)” value in assay [3] (setting [5]) and in assay [4] (setting [7]) was “inhibitory effect” in each case. In addition, the Relative activity in assay [3] (setting [6]) was 81.5; in assay [4] (setting [8]), 79.1.

Regarding `OC[C@H]1O[C@@](CO)(O[C@H]2O[C@H](CO)[C@@H](O)[C@H](O)[C@H]2O)[C@@H](O[C@H]2O[C@H](CO)[C@@H](O)[C@H](O)[C@H]2O)[C@@H]1O` [Melezitose], the Relative activity in assay [1] amounted to 0.5%; in assay [2] it was 0.2%.

As to `[Cl][Mn][Cl]` [MnCl2], the Relative activity in assay [3] (setting [6]) is listed as 93.4; in assay [4] it was 99.1.

Consider `OCC(O)CO` [Glycerin], for which the figures for the Relative activity in assay [1] and in assay [2] were 1.7% and 0.1> %, respectively.

Consider `[N-]=[N+]=[N-].[Na+]` [NaN3, sodium azide], for which the “inhibitory effect (in words)” value in assay [3] (setting [5]) is recorded as “inhibited”. The figures for the Relative activity in assay [3] (setting [6]) and in assay [4] were 89.3 and 97.8, respectively.

As to `O=C(O)CI` [Monoiodoacetic acid], in assay [3], the Relative activity is 68.7 and the “inhibitory effect (in words)” value is “inhibitory effect”. Further, in assay [4], the Relative activity was 73.3 and the “inhibitory effect (in words)” value is “inhibitory effect”.
